Read-outs that look alike come from different tables or passages of the source.
Experiments:
[1] = system: PANC-1 cell line; experiment: Cytotoxicity in PANC-1 cell line; assay type: cell-based, human
[2] = system: PANC-1 cell line; design: method as in PMID 34586588; settings: read-out: Cytotoxicity IC50 ± SD PANC-1; cited from earlier work
[3] = system: PDAC-2 cells; experiment: Scratch wound-healing migration assay, PDAC-2; assay type: cell-based, human; settings: PDAC-2, FA4 10 µM, 24 h
Method: (§1) Cancer cell migration is a key factor contributing to the aggressiveness of PDAC. It is therefore important to find new compounds that can counteract or stop this process. To evaluate the effect of FA4 on cell migratory properties, a migration assay was performed by incubating cells for 24 h with FA4.
(§2) Cells were seeded into 96-well plates 72 h before the assay at a density of 5 × 10^4 /well and allowed to attach and to become confluent. Subsequently, a scratch was performed in every well with a 96-pin scratcher, allowing the formation of uniform scratches. Immediately after this passage, cells were cultured for 24 h in complete medium with the drug of interest for experimental wells or without any drug for the control wells. Pictures were taken with an optical microscope at different time points (0, 6, and 24 h) and analyzed with the Scratch Assay 6.2 software (Digital Cell Imaging Labs, Keerbergen, Belgium). The migration assay was performed in technical and biological triplicates, as reported previously.

[4] = system: PDAC-2 cells; experiment: cells; settings: Homo sapiens, PDAC-2, 72 h, read-out: Cytotoxicity IC50 ± SD
Method: (§9) Human pancreatic adenocarcinoma primary cultures (PDAC1 and PDAC2) were cultured in RPMI + 10 % New Born Calf Serum + 1% Penicillin/ Streptomycin and maintained in standard conditions for <20 passages. Cells were routinely tested for Mycoplasma spp. and were free of contamination.
(§10) Cells were seeded in 96-well flat-bottom plates at a density of 3000/well, using both a control plate and an experimental plate. After 24 h, the control plate was fixed with cold 50% trichloroacetic acid, and the incubation with the compound of interest was performed in the experimental plate. After 72 h of incubation, the experimental plate was also fixed. Subsequently, both plates were washed and stained with the SRB solution, and after vigorous washing and drying, the bound dye was extracted from the cells with an alkaline solution. The absorption of SRB was measured spectrophotometrically at a wavelength of 490 nm and 540 nm. […] Thus, cell growth inhibition was calculated as the percentage versus vehicle-treated cells (“negative control”) OD (corrected for OD of the control plate before drug addiction). Finally, the half maximal inhibitory concentration (IC50) was calculated by nonlinear least squares curve fitting (GraphPad Prism 7, Intuitive Software for Science, San Diego, CA, USA), as described previously [33]. […]

[5] = system: PDAC-1 cells; experiment: cells; settings: Homo sapiens, 72 h, read-out: Cytotoxicity IC50 ± SD
Method: as §9, §10

[6] = system: PDAC-2 cells; experiment: Apoptosis assay (annexinV-FITC), PDAC-2; assay type: cell-based, human
Method: (§3) Previous studies reported that the modulation of σ2 receptor activity contributes to the initiation of the apoptotic process. Therefore, we evaluated the effect of FA4 on the induction of apoptosis in the PDAC primary cultures. To this aim, we measured the externalization of the plasma membrane phosphatidylserine, a reliable marker of cell apoptosis, which was quantified by the measurement of the fluorescence of annexin-V by spectrophotometric assay and microscopy. After 24 h of treatment with 10 μM FA4, a significant increase in the portion of apoptotic cells was observed compared to untreated control cells. The highest apoptotic index was measured in the PDAC-2 cells (17.6 ± 3.6, compared to 15.5 ± 4.9 in the PDAC-1 cells).
(§4) Cells were seeded in 96-well plates (5 × 10^3 cells/well), and after 24 h, the cells were fixed with 4% paraformaldehyde in PBS for 30 min, then washed twice with PBS and stained with annexinV-FITC in binding buffer (10 mM HEPES/NaOH pH 7.4, 140 mM NaCl, and 2.5 mM CaCl2) for 10 min in the dark at room temperature. Lastly, cells were washed with the assay binding buffer solution, and fluorescence was measured by using a multimode plate reader with excitation and emission filters at 485 nm and 535 nm, respectively, to determine the apoptotic index. […]

[7] = system: PDAC xenografts; design: method as in PMID 34586588; settings: cited from earlier work
[8] = Sulforhodamine B (SRB) assay, Hs27; assay type: cell-based, human; settings: human, normal skin fibroblast Hs27 cells; Hs27 nontransformed cells, SRB, 72 h; read-out: Cytotoxicity IC50 ± SD
Method: (§11) Cells were seeded in 96-well flat-bottom plates at a density of 3000/well, using both a control plate and an experimental plate. After 24 h, the control plate was fixed with cold 50% trichloroacetic acid, and the incubation with the compound of interest was performed in the experimental plate. After 72 h of incubation, the experimental plate was also fixed. Subsequently, both plates were washed and stained with the SRB solution, and after vigorous washing and drying, the bound dye was extracted from the cells with an alkaline solution. The absorption of SRB was measured spectrophotometrically at a wavelength of 490 nm and 540 nm. The intensity of the signal is proportional to the number of living cells and, therefore, a measure of their proliferation. Thus, cell growth inhibition was calculated as the percentage versus vehicle-treated cells (“negative control”) OD (corrected for OD of the control plate before drug addiction). Finally, the half maximal inhibitory concentration (IC50) was calculated by nonlinear least squares curve fitting (GraphPad Prism 7, Intuitive Software for Science, San Diego, CA, USA), as described previously [33]. The SRB assay was performed in technical and biological triplicates.

[9] = system: normal fibroblast Hs27 cells; experiment: Sulforhodamine B (SRB) assay, Hs27; assay type: cell-based, human; settings: Hs27 cells vs PDAC tumor cells
Method: as §11

[10] = Sulforhodamine B (SRB) assay, HPDE; assay type: cell-based, human; settings: human; HPDE nontransformed cells, SRB, 72 h; read-out: Cytotoxicity IC50 ± SD
Method: as §11

[11] = system: normal HPDE cells; experiment: Sulforhodamine B (SRB) assay, HPDE; assay type: cell-based, human; settings: HPDE cells vs PDAC tumor cells
Method: as §11

[12] = system: pancreatic ductal adenocarcinoma (PDAC) primary cell cultures; experiment: Antiproliferative activity on PDAC primary cell cultures (both cultures together); assay type: cell-based; settings: Homo sapiens; range over PDAC primary cell cultures; read-out: half maximal inhibitory concentration (IC50)
Description: A new sigma-2 (σ2) receptor ligand (FA4) was efficiently synthesized and evaluated for cytotoxic, proapoptotic, and antimigratory activity on pancreatic ductal adenocarcinoma (PDAC) primary cell cultures, which restrained the aggressive and chemoresistant behavior of PDAC. […] The cytotoxic activity was associated with induction of apoptosis, resulting in apoptotic indexes higher than those observed after exposure to a clinically relevant concentration of the gemcitabine, the first-line drug used against PDAC.

[13] = system: PDAC-1 cells; experiment: Apoptosis assay (annexinV-FITC), PDAC-1; assay type: cell-based, human
Method: as §3, §4

[14] = system: PDAC-1 cells; experiment: Scratch wound-healing migration assay, PDAC-1; assay type: cell-based, human; settings: PDAC-1, FA4 10 µM, 24 h
Method: as §1, §2

[15] = system: breast adenocarcinoma MCF7 cells; experiment: Cytotoxicity in MCF7 cells; assay type: cell-based; settings: Homo sapiens
Method: (§5) On the other hand, the data also confirmed the need for a strategy with a greater impact on pancreatic tumors. From this perspective, the multitarget FA4 appeared to be a promising candidate and was selected to be further investigated in the primary PDAC cell cultures of the present study.
(§6) Previous experiments were performed with human pancreas cancer cell lines PANC-1 (CRL-1469™), MiaPaCa2 (CRL-1420™), BxPC-3 (CRL-1687™), PANC-02.03 (CRL-2553™), AsPC-1 (CRL-1682™), human A549 lung cancer cells (CRM-CCL-185™), human MCF7 adenocarcinoma breast cells (HTB-22™), and human HepG2 hepatocarcinoma cells (HB-8065™), obtained from ATCC. PANC-1, MiaPaCa2, BxPC-3, PANC-02.03, AsPC-1, and MCF7cells were cultured in DMEM with heat inactivated 10% FBS, penicillin ([…]), and streptomycin ([…]). HepG2 cells were cultured in MEM supplemented with 10% (v/v) heat inactivated FPS, 1% (v/v) glutamine, 1% (v/v) penicillin, and streptomycin, 1% (v/v) NEAA. A549 cells were grown in HAM’S F12 supplemented with 10% heat inactivated FBS, 2 mM glutamine, 100 U mL^−1 penicillin, and 100 μg/mL streptomycin. All these cells were kept at 37 °C in a humidified incubator under an atmosphere of 5% CO2 in 75 cm^2 tissue culture flasks (Greiner Bio-One GmbH, Frickenhausen, Germany) and were harvested with trypsin-EDTA in their exponentially growing phase.

[16] = system: lung adenocarcinoma A549 cells; experiment: Cytotoxicity in A549 cells; assay type: cell-based; settings: Homo sapiens
Method: as §5, §6

[17] = target: σ1 receptor (Cavia porcellus, UniProt Q60492); experiment: σ1 receptor radioligand binding assay; settings: mean of n ≥ 3 separate experiments in duplicate, read-out: Ki ± SD σ1
Sequence of σ1 receptor (Q60492 whole entry): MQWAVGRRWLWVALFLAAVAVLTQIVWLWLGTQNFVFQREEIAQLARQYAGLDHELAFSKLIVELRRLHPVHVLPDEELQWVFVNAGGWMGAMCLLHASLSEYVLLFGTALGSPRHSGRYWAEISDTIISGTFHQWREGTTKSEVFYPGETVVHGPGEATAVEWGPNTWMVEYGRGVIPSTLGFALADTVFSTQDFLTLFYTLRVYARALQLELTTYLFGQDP
Method: (§7) The compounds underwent radioligand binding assays on σ1 and σ2 receptors, according to the previously adopted protocols.
(§8) σ1 and σ2 receptor binding were carried out following Matsumoto et al.. […] All the procedures for the binding assays were described previously by Abate and collaborators.

[18] = system: hepatocarcinoma HepG2 cells; experiment: Cytotoxicity in HepG2 cells; assay type: cell-based; settings: Homo sapiens
Method: as §5, §6

[19] = target: T1, σ2 receptor (Rattus norvegicus, UniProt Q5U3Y7); experiment: σ2 receptor radioligand binding assay
T1 sequence (Q5U3Y7 1-176): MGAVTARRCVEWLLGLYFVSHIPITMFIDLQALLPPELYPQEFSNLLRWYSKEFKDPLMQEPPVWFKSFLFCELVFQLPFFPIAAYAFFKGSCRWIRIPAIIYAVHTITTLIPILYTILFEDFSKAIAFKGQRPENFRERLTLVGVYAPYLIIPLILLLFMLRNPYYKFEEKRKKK
Method: as §7, §8

[20] = Homo sapiens, PANC-1, read-out: Cytotoxicity IC50 ± SD PANC-1

## Cc1ccccc1N=C(N)Nc1ccccc1C [DTG]
[1]; PANC-1 cell line, read-out: Cytotoxicity IC50 ± SD PANC-1
  IC50: > 50 µM

## Fc1ccc(-n2cc(CCCCN3CCC4(CC3)OCc3ccccc34)c3ccccc32)cc1 [Siramesine]
[1]; Homo sapiens, PANC-1 cell line, read-out: Cytotoxicity IC50 ± SD PANC-1
  IC50: > 50 µM

## CN(C)C(=S)N/N=C1\C(=O)N(CCCCN2CCC3(CC2)OCc2ccccc23)c2ccccc21 [FA4]
[2]
  IC50: 3.01 ± 0.9 µM
[3]
  migration rate: significantly inhibit the migration rate
[4]
  IC50: 701 ± 59 nM
[5]
  IC50: 825 ± 6 nM
[6]; PDAC-2, 10 μM, 24 h, annexinV-FITC fold change compared to control cells
  apoptotic index: 17.6 ± 3.6
[6]; PDAC-2, 24 h treatment
  percentages of apoptotic cells compared to gemcitabine at 10 μM: significantly higher
[7]
  safety in PDAC xenografts: safe
[8]
  IC50 at 72 h: 5.55 ± 0.333 µM
[9]
  selectivity index (SI, IC50 non-tumor cells/IC50 tumor cells): 7
[10]
  IC50 at 72 h: 8.07 ± 0.302 µM
[11]
  selectivity index (SI, IC50 non-tumor cells/IC50 tumor cells): 11
[12]
  IC50: 701 to 825 nM
[13]; PDAC-1, 10 μM, 24 h, annexinV-FITC fold change compared to control cells
  apoptotic index: 15.5 ± 4.9
[13]; PDAC-1, 24 h treatment
  percentages of apoptotic cells compared to gemcitabine at 10 μM: significantly higher
[14]
  migration rate: significantly inhibit the migration rate

## c1ccc2c(c1)COC21CCN(CCCCn2ccc3ccccc32)CC1 [MT8, 1’-(4-(1H-indol-1-yl)butyl)-3H-spiro[isobenzofuran-1,4’-piperidine]]
[15]
  IC50: 6.02 µM
[16]
  IC50: 4.29 µM
[17]
  Ki: 27.3 ± 2.6 nM
[18]
  IC50: 3.2 µM
[1]
  cytotoxic potency relative to FA4: six-fold less potent than FA4
[1]; [20]
  IC50: 19.1 ± 1.3 µM
[19]
  Ki: 0.43 ± 0.1 nM

## CC(C)=CCN1CC[C@]2(C)c3cc(O)ccc3C[C@H]1[C@H]2C [(+)-pentazocine]
[1]; [20]
  IC50: > 50 µM
